Laboratory results reported in ChEMBL document CHEMBL5257142, “Targeted Degradation of KRASG12D as Potential Therapy in Cancer” (ACS Med Chem Lett, 2023).

Test system: GTPase KRas (Homo sapiens), P01116 [G12D]
Assay: Protac activity at VHL/KRAS G12D in human ASPC1 cells assessed as induction of KRAS G12D protein degradation at 1 uM incubated for 24 hrs by luminescence based analysis relative to control
Assay type: cell-based

Sequence of GTPase KRas (Homo sapiens), P01116 [G12D] (P01116 whole entry G12D, looked up): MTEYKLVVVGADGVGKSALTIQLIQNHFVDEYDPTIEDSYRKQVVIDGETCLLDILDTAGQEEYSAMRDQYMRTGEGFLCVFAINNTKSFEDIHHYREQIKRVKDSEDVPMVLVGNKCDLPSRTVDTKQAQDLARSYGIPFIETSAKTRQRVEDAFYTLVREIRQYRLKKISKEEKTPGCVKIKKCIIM

Cc1cc(N)nc(-c2c(Cl)cc3c(N4CC5CCC(C4)N5)nc(OC[C@@H]4CCCN4CCCOCCC(=O)N[C@H](C(=O)N4C[C@H](O)C[C@H]4C(=O)NCc4ccc(-c5scnc5C)cc4)C(C)(C)C)nc3c2F)c1C(F)(F)F
Activity: -0.69%

Cc1cc(N)nc(-c2c(Cl)cc3c(N4CC5CCC(C4)N5)nc(OC[C@@H]4CCCN4CCCOCCC(=O)N[C@H](C(=O)N4C[C@H](O)C[C@H]4C(=O)N[C@@H](C)c4ccc(-c5scnc5C)cc4)C(C)(C)C)nc3c2F)c1C(F)(F)F
Activity: 29.3%

Cc1cc(N)nc(-c2c(Cl)cc3c(N4CC5CCC(C4)N5)nc(OC[C@@H]4CCCN4CCCCCCCN4CCC(c5cc(F)cc6c5CN(C5CCC(=O)NC5=O)C6=O)CC4)nc3c2F)c1C(F)(F)F (stereo partly specified)
Activity: -22.9%

Cc1ncsc1-c1ccc([C@H](C)NC(=O)[C@@H]2C[C@@H](O)CN2C(=O)[C@@H](NC(=O)CCOCCCN2CCC[C@H]2COc2nc(N3CC4CCC(C3)N4)c3cc(Cl)c(-c4ccc(F)c5sc(N)nc45)c(F)c3n2)C(C)(C)C)cc1
Activity: 51.3%

Cc1ncsc1-c1ccc([C@H](C)NC(=O)[C@@H]2C[C@@H](O)CN2C(=O)[C@@H](NC(=O)CCCCN2CCC[C@H]2COc2nc(N3CC4CCC(C3)N4)c3cc(Cl)c(-c4ccc(F)c5sc(N)nc45)c(F)c3n2)C(C)(C)C)cc1
Activity: 38.1%

Cc1cc(N)nc(-c2c(Cl)cc3c(N4CC5CCC(C4)N5)nc(OC[C@@H]4CCCN4CCCOCCCOc4cc(-c5scnc5C)ccc4CNC(=O)[C@@H]4C[C@@H](O)CN4C(=O)[C@H](NC(=O)C4(F)CC4)C(C)(C)C)nc3c2F)c1C(F)(F)F
Activity: -5.46%
